In US20190022088A1 (RedHill Biopharma Ltd., priority 2017, published 2019):

Legend:
Human Trypsin-3 = target: T1, Human Trypsin-3 (Homo sapiens, UniProt P35030); experiment: Ki of WX-UK1, chromogenic substrate cleavage; assay type: biochemical; details: 37° C., 0.5% BSA, pH=7.4, read-out: Ki (μM) Mean ± SD (n)
T1 sequence (P35030 81-304 limits assumed): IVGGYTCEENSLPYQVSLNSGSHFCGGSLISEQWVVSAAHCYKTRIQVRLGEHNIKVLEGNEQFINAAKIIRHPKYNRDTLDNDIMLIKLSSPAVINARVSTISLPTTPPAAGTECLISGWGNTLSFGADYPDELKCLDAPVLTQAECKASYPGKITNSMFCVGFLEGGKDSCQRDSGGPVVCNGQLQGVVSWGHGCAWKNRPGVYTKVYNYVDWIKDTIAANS

trypsin-2 [1] = target: T2, trypsin-2 (Homo sapiens, UniProt P07478); experiment: Ki of WX-UK1, chromogenic substrate cleavage; assay type: biochemical; details: 37° C., 0.5% BSA, pH=7.4, read-out: Ki (μM) Mean ± SD (n)
T2 sequence (P07478 24-247): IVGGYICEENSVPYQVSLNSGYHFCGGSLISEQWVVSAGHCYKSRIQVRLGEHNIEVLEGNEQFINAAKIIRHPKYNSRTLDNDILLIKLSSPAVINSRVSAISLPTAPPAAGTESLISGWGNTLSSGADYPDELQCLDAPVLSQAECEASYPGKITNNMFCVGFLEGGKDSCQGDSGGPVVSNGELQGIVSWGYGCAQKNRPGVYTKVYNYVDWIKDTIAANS

Human Trypsin-1 = Human Trypsin-1 (Homo sapiens, UniProt P07477); experiment: Ki of WX-UK1, chromogenic substrate cleavage; assay type: biochemical; details: 37° C., 0.5% BSA, pH=7.4, read-out: Ki (μM) Mean ± SD (n)
Human Tryptase- = experiment: Ki of WX-UK1, chromogenic substrate cleavage; assay type: biochemical; details: Human Tryptase- (isoform character is an image); 37° C., 0.5% BSA, pH=7.4; read-out: Ki (μM) Mean ± SD (n)
Experimental: (§1) Samples of the selected proteases were prepared and characterized biochemically with respect to inhibitory constant (Ki) of inhibition by WX-UK1-1 and affinity (Kd) of the interaction.
Substrate concentrations were kept high in order to stay around 10% turnover per run.

trypsin-2 [2] = target: T2, trypsin-2; experiment: Drug-binding kinetic studies
Experimental: as §1

Solubility = assay type: physicochemical
[3] = target: urokinase type plasminogen activator (uPA) (Homo sapiens, UniProt P00749); details: previously shown; cited from earlier work
plasmin = plasmin (Homo sapiens, UniProt P00747); details: previously shown; cited from earlier work
Chain of plasmin (P00747 581-810 limits assumed, species assumed): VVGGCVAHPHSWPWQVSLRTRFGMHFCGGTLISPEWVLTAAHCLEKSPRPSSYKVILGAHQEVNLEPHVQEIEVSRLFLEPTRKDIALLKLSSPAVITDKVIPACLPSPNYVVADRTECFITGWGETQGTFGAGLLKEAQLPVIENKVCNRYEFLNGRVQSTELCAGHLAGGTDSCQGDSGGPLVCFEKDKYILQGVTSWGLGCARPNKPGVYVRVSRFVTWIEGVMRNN
Chain of plasmin (P00747 97-580 partner limits assumed, species assumed): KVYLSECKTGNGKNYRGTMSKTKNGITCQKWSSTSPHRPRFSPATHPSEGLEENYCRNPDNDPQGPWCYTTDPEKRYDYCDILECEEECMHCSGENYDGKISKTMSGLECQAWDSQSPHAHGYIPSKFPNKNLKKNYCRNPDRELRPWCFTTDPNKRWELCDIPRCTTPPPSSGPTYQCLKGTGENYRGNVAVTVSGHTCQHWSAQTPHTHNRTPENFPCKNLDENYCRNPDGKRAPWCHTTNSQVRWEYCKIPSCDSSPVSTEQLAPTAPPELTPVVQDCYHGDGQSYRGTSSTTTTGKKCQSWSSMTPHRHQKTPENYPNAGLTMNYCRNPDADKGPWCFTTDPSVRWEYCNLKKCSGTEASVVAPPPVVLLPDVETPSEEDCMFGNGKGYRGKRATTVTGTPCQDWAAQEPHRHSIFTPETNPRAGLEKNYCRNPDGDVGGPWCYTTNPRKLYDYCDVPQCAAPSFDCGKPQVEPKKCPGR

implanted tumors = details: parenterally administered; cited from earlier work

Q: For `CCOC(=O)N1CCN(C(=O)C(Cc2cccc(C(=N)N)c2)NS(=O)(=O)c2c(C(C)C)cc(C(C)C)cc2C(C)C)CC1` (stereo not drawn) [WX-UK1, N-α-(2,4,6-triisopropylphenylsulfonyl)-3-amidino-(L)-phenylalanine 4-ethoxycarbonylpiperazide], which Ki (Human Trypsin-3) is on record?
A: The Ki was roughly 0.019 µM.

Q: What about the Ki (trypsin-2 [1]) of the same compound?
A: Its Ki is roughly 0.075 µM.

Q: And the Ki (Human Trypsin-1)?
A: Its Ki is roughly 0.19 µM.

Q: What about the Ki (Human Tryptase-) of the same compound?
A: The Ki was 11 ± 2 µM.

Q: What about the “rate of association with trypsin-2 compared with uPA” value (trypsin-2 [2]) of the same compound?
A: Its value is “faster”.

Q: What about the “rate of dissociation from trypsin-2 compared with uPA” value (trypsin-2 [2]) of the same compound?
A: The value was “slower”.

Q: And the solubility in water (Solubility)?
A: The solubility in water was “poor solubility”.

Q: And the Ki [3]?
A: Its Ki is 650 to 900 nM.

Q: And the Ki (plasmin)?
A: The Ki was 1460 to 2400 nM.

Q: What about the “growth rate of implanted tumors” value (implanted tumors) of the same compound?
A: The value was “reduce the growth rate of implanted tumors”.

Q: What about the “invasion into nearby lymph nodes and spreading to distant target organs of metastasis” value (implanted tumors) of the same compound?
A: The value was “inhibit their invasion into nearby lymph nodes and their spreading to distant target organs of metastasis”.
